Our source for the mass density values is the NIST ThermoML archive (doi:10.1016/j.jct.2018.08.035).

± gives the expanded uncertainty stated by the source.

For the data set the following is noted: 298.15 K; 101.33 kPa; Liquid; Vibrating tube method.

`C[N+](=O)[O-]` [nitromethane]: the mass density turned out to be 1131.1 ± 2.3 kg/m3.

As to `CCC(O)CC` [3-pentanol], the mass density turned out to be 815.8 ± 1.7 kg/m3.

The term mass density denotes the mass of a sample divided by its volume.
